{"source": "paper PMC5911155", "about": "(Nature chemistry, 2018)", "origin": "cited, not measured here", "tested_on": "Aβ42 monomers", "conditions": "ref [7], [42]"}
{"substance": "Aβ40: fibrils constructed from other proteins and peptides, including Aβ40", "values": [{"measurement": "ability of fibrils to catalyse nucleation of Aβ42 monomers", "result": "not able to efficiently catalyse nucleation of Aβ42 monomers"}]}
